Results from patent US10745382B2 (BRISTOL-MYERS SQUIBB COMPANY, priority 2015, dated 2020).
Like-named read-outs stand apart in the source and are kept apart here.

Molecular target: T1, PD-1/PD-L1 (Homo sapiens, UniProt Q9NZQ7)
T1 construct: made in house; host or cells: HEK293T
Test: PD-1/PD-L1 Homogenous Time-Resolved Fluorescence (HTRF) binding assay
Settings: PD-L1-His 10 nM, PD-1-Ig 20 nM, read-out: Range or IC50
Procedure, shortened: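 Compounds are tested for blocking the PD-1/PD-L1 interaction in dPBS supplemented with 0.1% BSA and 0.05% (v/v) Tween-20. Tagged proteins are detected with Eu-cryptate anti-Ig and APC anti-His at 1 and 20 nM final.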

T1 sequence (Q9NZQ7 with tags, fused parts or gaps): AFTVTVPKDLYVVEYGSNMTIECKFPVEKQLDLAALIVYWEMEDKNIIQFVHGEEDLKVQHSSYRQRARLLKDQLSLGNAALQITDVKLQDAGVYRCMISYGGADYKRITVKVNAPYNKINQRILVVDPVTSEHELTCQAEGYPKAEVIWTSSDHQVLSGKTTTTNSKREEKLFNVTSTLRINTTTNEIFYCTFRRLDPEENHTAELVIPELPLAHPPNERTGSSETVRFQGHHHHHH

| SMILES | IC50 (value given as range class) | IC50 (numeric IC50) |
| --- | --- | --- |
| Cc1c(COc2cc(OCc3cncc(C#N)c3)c(CNC(CO)CO)cc2Cl)cccc1-c1cccc(OCCCN2CCC(F)(F)C2)c1C [Example 4116, 5-((4-chloro-5-((3′-(3-(3,3-difluoropyrrolidin-1-yl)propoxy)-2,2′-dimethyl-[1,1′-biphenyl]-3-yl)methoxy)-2-(((1,3-dihydroxypropan-2-yl)amino)methyl)phenoxy)methyl)nicotinonitrile] | 210 to 10000 pM | – |
| Cc1c(COc2cc(OCc3cncc(C#N)c3)c(CNC(C)(CO)CO)cc2Cl)cccc1-c1cccc(OCCCN2CCC(F)(F)C2)c1C [Example 4117, 5-((4-chloro-5-((3′-(3-(3,3-difluoropyrrolidin-1-yl)propoxy)-2,2′-dimethyl-[1,1′-biphenyl]-3-yl)methoxy)-2-(((1,3-dihydroxy-2-methylpropan-2-yl)amino)methyl)phenoxy)methyl)nicotinonitrile] | 210 to 10000 pM | – |
| Cc1c(COc2cc(OCc3cncc(C#N)c3)c(CNC(CO)(CO)CO)cc2Cl)cccc1-c1cccc(OCCCN2CCC(F)(F)C2)c1C [Example 4118, 5-((4-chloro-5-((3′-(3-(3,3-difluoropyrrolidin-1-yl)propoxy)-2,2′-dimethyl-[1,1′-biphenyl]-3-yl)methoxy)-2-(((1,3-dihydroxy-2-(hydroxymethyl)propan-2-yl)amino)methyl)phenoxy)methyl)nicotinonitrile] | 210 to 10000 pM | – |
| Cc1c(COc2cc(OCc3cncc(C#N)c3)c(CN[C@@](C)(CO)C(=O)O)cc2Cl)cccc1-c1cccc(OCCCN2CCC(F)(F)C2)c1C [Example 4119, (S)-2-((5-chloro-2-((5-cyanopyridin-3-yl)methoxy)-4-((3′-(3-(3,3-difluoropyrrolidin-1-yl)propoxy)-2,2′-dimethyl-[1,1′-biphenyl]-3-yl)methoxy)benzyl)amino)-3-hydroxy-2-methylpropanoic Acid] | 210 to 10000 pM | – |
| Cc1c(COc2cc(OCc3cncc(C#N)c3)c(CN(C)C(CO)CO)cc2Cl)cccc1-c1cccc(OCCCN2CCC(F)(F)C2)c1C [Example 4120, 5-((4-chloro-5-((3′-(3-(3,3-difluoropyrrolidin-1-yl)propoxy)-2,2′-dimethyl-[1,1′-biphenyl]-3-yl)methoxy)-2-(((1,3-dihydroxypropan-2-yl)(methyl)amino)methyl)phenoxy)methyl)nicotinonitrile] | 210 to 10000 pM | – |
| Cc1c(COc2cc(OCc3cncc(C#N)c3)c(CN(C)C(CO)(CO)CO)cc2Cl)cccc1-c1cccc(OCCCN2CCC(F)(F)C2)c1C [Example 4121, 5-((4-chloro-5-((3′-(3-(3,3-difluoropyrrolidin-1-yl)propoxy)-2,2′-dimethyl-[1,1′-biphenyl]-3-yl)methoxy)-2-(((1,3-dihydroxy-2-(hydroxymethyl)propan-2-yl)(methyl)amino)methyl)phenoxy)methyl)nicotinonitrile] | – | 500 pM |
| Cc1c(COCCN2CC[C@@H](O)C2)cccc1-c1cccc(COc2cc(OCc3cncc(C#N)c3)c(CNC(CO)CO)cc2Cl)c1C [Example 4122, (R)-5-((4-chloro-2-(((1,3-dihydroxypropan-2-yl)amino)methyl)-5-((3′-((2-(3-hydroxypyrrolidin-1-yl)ethoxy)methyl)-2,2′-dimethyl-[1,1′-biphenyl]-3-yl)methoxy)phenoxy)methyl)nicotinonitrile] | 210 to 10000 pM | – |
| Cc1c(COCCN2CC[C@@H](O)C2)cccc1-c1cccc(COc2cc(OCc3cncc(C#N)c3)c(CN[C@@](C)(CO)C(=O)O)cc2Cl)c1C [Example 4123, (S)-2-((5-chloro-2-((5-cyanopyridin-3-yl)methoxy)-4-((3′-((2-((R)-3-hydroxypyrrolidin-1-yl)ethoxy)methyl)-2,2′-dimethyl-[1,1′-biphenyl]-3-yl)methoxy)benzyl)amino)-3-hydroxy-2-methylpropanoic Acid] | 210 to 10000 pM | – |
| Cc1c(COCCN2CC[C@@H](O)C2)cccc1-c1cccc(COc2cc(OCc3cncc(C#N)c3)c(CNC3(C(=O)O)CC3)cc2Cl)c1C [Example 4124, (R)-1-((5-chloro-2-((5-cyanopyridin-3-yl)methoxy)-4-((3′-((2-(3-hydroxypyrrolidin-1-yl)ethoxy)methyl)-2,2′-dimethyl-[1,1′-biphenyl]-3-yl)methoxy)benzyl)amino)cyclopropane-1-carboxylic Acid] | 210 to 10000 pM | – |
| Cc1c(COCCN2CC[C@@H](O)C2)cccc1-c1cccc(COc2cc(OCc3cncc(C#N)c3)c(CNC(CO)(CO)CO)cc2Cl)c1C [Example 4125, (R)-5-((4-chloro-2-(((1,3-dihydroxy-2-(hydroxymethyl)propan-2-yl)amino)methyl)-5-((3′-((2-(3-hydroxypyrrolidin-1-yl)ethoxy)methyl)-2,2′-dimethyl-[1,1′-biphenyl]-3-yl)methoxy)phenoxy)methyl)nicotinonitrile] | 210 to 10000 pM | – |
| Cc1c(COCCN2CC[C@@H](O)C2)cccc1-c1cccc(COc2cc(OCc3cncc(C#N)c3)c(CN3CCCC[C@H]3C(=O)O)cc2Cl)c1C [Example 4126, (S)-1-(5-chloro-2-((5-cyanopyridin-3-yl)methoxy)-4-((3′-((2-((R)-3-hydroxypyrrolidin-1-yl)ethoxy)methyl)-2,2′-dimethyl-[1,1′-biphenyl]-3-yl)methoxy)benzyl)piperidine-2-carboxylic Acid] | 210 to 10000 pM | – |
| Cc1c(COCCN2CC[C@@H](O)C2)cccc1-c1cccc(COc2cc(OCc3cncc(C#N)c3)c(CN(C)C(CO)CO)cc2Cl)c1C [Example 4127, (R)-5-((4-chloro-2-(((1,3-dihydroxypropan-2-yl)(methyl)amino)methyl)-5-((3′-((2-(3-hydroxypyrrolidin-1-yl)ethoxy)methyl)-2,2′-dimethyl-[1,1′-biphenyl]-3-yl)methoxy)phenoxy)methyl)nicotinonitrile] | 210 to 10000 pM | – |
| Cc1c(COCCN2CC[C@@H](O)C2)cccc1-c1cccc(COc2cc(OCc3cncc(C#N)c3)c(CN(C)C(C)(CO)CO)cc2Cl)c1C [Example 4128, (R)-5-((4-chloro-2-(((1,3-dihydroxy-2-methylpropan-2-yl)(methyl)amino)methyl)-5-((3′-((2-(3-hydroxypyrrolidin-1-yl)ethoxy)methyl)-2,2′-dimethyl-[1,1′-biphenyl]-3-yl)methoxy)phenoxy)methyl)nicotinonitrile] | 210 to 10000 pM | – |
| Cc1c(COCCN2CC[C@@H](O)C2)cccc1-c1cccc(COc2cc(OCc3cncc(C#N)c3)c(CN(C)C3(C(=O)O)CC3)cc2Cl)c1C [Example 4129, (R)-1-((5-chloro-2-((5-cyanopyridin-3-yl)methoxy)-4-((3′-((2-(3-hydroxypyrrolidin-1-yl)ethoxy)methyl)-2,2′-dimethyl-[1,1′-biphenyl]-3-yl)methoxy)benzyl)(methyl)amino)cyclopropane-1-carboxylic Acid] | 210 to 10000 pM | – |
| Cc1c(COCCN2CC[C@@H](O)C2)cccc1-c1cccc(COc2cc(OCc3cncc(C#N)c3)c(CN(C)[C@@H](CO)C(=O)O)cc2Cl)c1C [Example 4130, N-(5-chloro-2-((5-cyanopyridin-3-yl)methoxy)-4-((3′-((2-((R)-3-hydroxypyrrolidin-1-yl)ethoxy)methyl)-2,2′-dimethyl-[1,1′-biphenyl]-3-yl)methoxy)benzyl)-N-methyl-L-serine] | 210 to 10000 pM | – |
| Cc1c(COCCN2CC[C@@H](O)C2)cccc1-c1cccc(COc2cc(OCc3cncc(C#N)c3)c(CNC(C)(CO)CO)cc2Cl)c1C [Example 4131, (R)-5-((4-chloro-2-(((1,3-dihydroxy-2-methylpropan-2-yl)amino)methyl)-5-((3′-((2-(3-hydroxypyrrolidin-1-yl)ethoxy)methyl)-2,2′-dimethyl-[1,1′-biphenyl]-3-yl)methoxy)phenoxy)methyl)nicotinonitrile] | 210 to 10000 pM | – |
| Cc1c(COc2cc(OCc3cncc(C#N)c3)c(CN(C)[C@@H](C)C(=O)O)cc2Cl)cccc1-c1cccc(OCCCN2CC[C@@H](O)C2)c1C [Example 4132, N-(5-chloro-2-((5-cyanopyridin-3-yl)methoxy)-4-((3′-(3 ((R)-3-hydroxypyrrolidin-1-yl)propoxy)-2,2′-dimethyl-[1,1′-biphenyl]-3-yl)methoxy)benzyl)-N-methyl-L-alanine] | 210 to 10000 pM | – |
| CC[C@@H](C(=O)O)N(C)Cc1cc(Cl)c(OCc2cccc(-c3cccc(OCCCN4CC[C@@H](O)C4)c3C)c2C)cc1OCc1cncc(C#N)c1 [Example 4133, (S)-2-((5-chloro-2-((5-cyanopyridin-3-yl)methoxy)-4-((3′-(3-((R)-3-hydroxypyrrolidin-1-yl)propoxy)-2,2′-dimethyl-[1,1′-biphenyl]-3-yl)methoxy)benzyl)(methyl)amino)butanoic Acid] | 210 to 10000 pM | – |
| Cc1c(COc2cc(OCc3cncc(C#N)c3)c(CN(C)C3(C(=O)O)CC3)cc2Cl)cccc1-c1cccc(OCCCN2CC[C@@H](O)C2)c1C [Example 4134, (R)-1-((5-chloro-2-((5-cyanopyridin-3-yl)methoxy)-4-((3′-(3-(3-hydroxypyrrolidin-1-yl)propoxy)-2,2′-dimethyl-[1,1′-biphenyl]-3-yl)methoxy)benzyl)(methyl)amino)cyclopropane-1-carboxylic Acid] | 210 to 10000 pM | – |
| Cc1c(COc2cc(OCc3cncc(C#N)c3)c(CN(C)[C@@H](CCO)C(=O)O)cc2Cl)cccc1-c1cccc(OCCCN2CC[C@@H](O)C2)c1C [Example 4135, N-(5-chloro-2-((5-cyanopyridin-3-yl)methoxy)-4-((3′-(3-((R)-3-hydroxypyrrolidin-1-yl)propoxy)-2,2′-dimethyl-[1,1′-biphenyl]-3-yl)methoxy)benzyl)-N-methyl-L-homoserine] | 210 to 10000 pM | – |
| Cc1c(COc2cc(OCc3cncc(C#N)c3)c(CN(C)[C@@H](CO)C(=O)O)cc2Cl)cccc1-c1cccc(OCCCN2CC[C@@H](O)C2)c1C [Example 4136, N-(5-chloro-2-((5-cyanopyridin-3-yl)methoxy)-4-((3′-(3-((R)-3-hydroxypyrrolidin-1-yl)propoxy)-2,2′-dimethyl-[1,1′-biphenyl]-3-yl)methoxy)benzyl)-N-methyl-L-serine] | 210 to 10000 pM | – |
